Source: patent US20090023762A1, “Substituted 2-Aminopyrimidine-4-Ones, Their Pharmaceutical Compositions And Their Use In The Treatment And/Or Prevention Of Ab-Related Pathologies” (ASTRAZENECA AB, priority 2005, published 2009)

Biological target: T1, human β-Secretase (Homo sapiens, UniProt P56817)
T1 construct: The soluble part of the human β-Secretase (AA 1-AA 460) was cloned; Fc domain of IgG1 (C); made in house
Assay: TR-FRET assay
Type: biochemical
Details: substrate (Europium)CEVNLDAEFK(Qsy7) 100 nM, enzyme 0.3 nM, pH 4.5
Protocol: The enzyme used in the IGEN Cleavage-, Fluorescent-, TR-FRET- and the BiaCore assay is described as follows:
The soluble part of the human β-Secretase (AA 1-AA 460) was cloned into the ASP2-Fc10-1-IRES-GFP-neoK mammalian expression vector. The gene was fused to the Fc domain of IgG1 (affinity tag) and stably cloned into HEK 293 cells. Purified sBACE-Fc is stored in Tris buffer, pH 9.2 and has a purity of 95%.
Dilute the enzyme (truncated form) to 6 μg/mL (stock 1.3 mg/mL) and the substrate (Europium)CEVNLDAEFK (Qsy7) to 200 nM (stock 60 μM) in reaction buffer (NaAcetate, chaps, triton x-100, EDTA pH4.5). The Biomek FX is used for all liquid handling and the enzyme and substrate solutions are kept on ice until they are placed in Biomek FX. Enzyme (9 μl) is added to the plate then […] in dimethylsulphoxide is added, mixed and pre-incubated for 10 minutes. Substrate (10 μl) is then added, mixed and the reaction proceeds in the dark for 15 minutes at room temperature. The reaction is stopped with the addition of Stop solution (7 μl, NaAcetate pH 9). The fluorescence of the product is measured on a Victor II plate reader with an excitation wavelength of 340 nm and an emission wavelength of 615 nm. The assay is done in a Costar 384 well round bottom, low volume, non-binding surface (Corning #3676). […]

T1 sequence (P56817 22-460): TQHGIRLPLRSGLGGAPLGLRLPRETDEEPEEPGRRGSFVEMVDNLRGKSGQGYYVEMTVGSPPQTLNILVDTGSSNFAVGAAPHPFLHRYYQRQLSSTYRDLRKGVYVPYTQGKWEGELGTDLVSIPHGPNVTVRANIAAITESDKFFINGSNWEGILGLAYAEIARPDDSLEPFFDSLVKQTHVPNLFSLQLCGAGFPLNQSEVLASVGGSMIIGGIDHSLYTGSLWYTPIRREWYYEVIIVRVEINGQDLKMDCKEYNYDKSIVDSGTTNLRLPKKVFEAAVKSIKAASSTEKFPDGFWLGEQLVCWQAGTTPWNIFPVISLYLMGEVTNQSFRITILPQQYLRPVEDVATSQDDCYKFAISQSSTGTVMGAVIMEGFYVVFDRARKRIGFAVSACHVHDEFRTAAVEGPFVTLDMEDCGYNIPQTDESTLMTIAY

COc1cc(OS(C)(=O)=O)cc(-c2cccc(C3(C)CC(=O)N(C)C(N)=N3)c2)c1 (stereo not shown) [Example 9, 3′-(2-Amino-1,4-dimethyl-6-oxo-1,4,5,6-tetrahydropyrimidin-4-yl)-5-methoxybiphenyl-3-yl methanesulfonate]
IC50: 703 nM
